Patent US11298561B2, “Method of treating multi-drug resistance biofilm using targeted laser and antibiotics” (priority 2013, dated 2022)
Where “and” joins values, the source holds several entries; their conditions need not be identical. Equal entries are not always repeated. Where two headings read alike, the source gives them in different places.

Key:
MRSA SA5120 biofilms = type: cell-based, Staphylococcus aureus
Protocol: (§1) Two MDR clinical wound isolates, namely, methicillin-resistant S. aureus (MRSA) SA5120 and P. aeruginosa PA 60-65, were received as gifts from a repository at the U.S. Army Institute of Surgical Research (JBSA-Fort Sam Houston, Tex.). Biofilms were established on 5-mm glass discs or in 96-well half-area glass-bottom plates that had been pre-treated for 24 h with 1 mg/mL of fibrinogen. Overnight cultures of SA5120 in tryptic soy broth (TSB) were diluted to an optical density at 600 nm (OD600) of 0.1 using TSB supplemented with 10% human plasma, added to empty wells of a 96-well glass-bottom culture plate or to wells containing 5-mm glass discs, and allowed to grow into biofilms for 24 h at 37° C. under static conditions. For PA 60-65, overnight cultures in brain heart infusion broth (BHI) were diluted 20-fold using 20% BHI in phosphate-buffered saline (PBS) supplemented with 0.2% glucose and 0.4% NaCl and grown to an OD600 of 0.5 at 37° C. with shaking at 250 rpm. The bacterial suspension was diluted to an OD600 of 0.01 in PBS, and 20 μL of inoculant was spotted onto 5-mm glass discs placed in 6-well tissue culture plates. Samples were incubated at room temperature for 2 h to allow cell attachment, rinsed in PBS, and then cultured in 20% BHI/0.2% glucose/0.4% NaCl in PBS for 72 h at 37° C. with shaking at 140 rpm. Biofilms were rinsed in PBS and transferred into 96-well glass-bottom plates for subsequent treatment.
MRSA biofilms in 96-well glass-bottom plates or on 5-mm glass discs were pre-treated with increasing concentrations of tGNPs from 0-100 μg/mL in PBS for 2 h. This 2-h treatment duration was selected based upon results from comparison of the extent of biofilm dispersion caused by different tGNP incubation periods used in combination with laser irradiation (FIG. 9). Following the tGNP pre-treatment, unattached tGNPs were washed away using PBS, and 40 μL of PBS was added to the wells. Biofilms were then irradiated with increasing numbers of laser pulses from 0-100 pulses at 532 nm and a fluence of ˜1.0 J/cm^2 using an Nd:YAG laser system (8-ns pulse, 1 Hz; Quantel, Bozeman, Mont.) and an automated XY-gantry sample positioning system operated through LabVIEW software (National Instruments, Austin, Tex.). After exposure, samples were analyzed using confocal microscopy or colony forming unit (CFU) assays.
Biofilms grown on glass discs were pre-treated with tGNPs or non-targeted GNPs at 70 μg/mL in PBS for 2 h (SA5120) or 1 h (PA 60-65). The 1-h pre-treatment period for PA 60-65 was selected based upon results from comparison of biofilm dispersion caused by various tGNP incubation times used in combination with laser irradiation (FIG. 10). Following the tGNP pre-treatment, samples were rinsed using PBS, and 40 μL of PBS was added to each well. Biofilms were then exposed to 50 laser pulses at 532 nm or sham exposed as described in Supplementary Materials. Biofilms treated with 50 laser pulses alone or PBS alone (controls) were also included. […] After treatment, samples were analyzed using confocal microscopy, CFU assays, or scanning electron microscopy (SEM).
Biofilms on glass discs were pre-treated with tGNPs at 70 μg/mL in PBS for 2 h (SA5120) or 1 h (PA 60-65). Samples were rinsed with PBS, 40 μL of PBS was added to each well, and biofilms were then exposed to 50 laser pulses at 532 nm or sham exposed. Biofilms treated with 50 laser pulses alone or PBS alone were also included. […]

[1] = test system: planktonic MRSA SA5120 cultures; test: CFU assay of planktonic MRSA SA5120 cultures; type: cell-based, Staphylococcus aureus; settings: for reduction in viability of planktonic MRSA cultures (CFU): antibiotic alone, 24 h (vancomycin 100 μg/mL)
Protocol: For planktonic bacteria, broth cultures of SA5120 in TSB and PA 60-65 in BHI were grown for 16-18 h at 37° C. on a shaker at 250 rpm. The cultures were diluted to an OD600 of 0.1 using TSB for SA5120 or BHI for PA 60-65 and incubated at 37° C. for ˜1.5 h to reach an OD600 of 0.3. […] The cell pellets were washed twice in PBS, re-suspended in 1 mL of PBS, serially diluted in PBS, and plated in triplicate on TSA plates. The plates were incubated overnight at 37° C., and the resulting colonies were enumerated and used to calculate CFUs/mL.

[2] = test system: P. aeruginosa PA 60-65 biofilms; test: CFU assay of P. aeruginosa PA 60-65 biofilms; type: cell-based, Pseudomonas aeruginosa; settings: for reduction in P. aeruginosa biofilm viability (CFU): 24 h
Protocol: as §1
Biofilms grown on glass discs were pre-treated with tGNPs or non-targeted GNPs at 70 μg/mL in PBS for 2 h (SA5120) or 1 h (PA 60-65). The 1-h pre-treatment period for PA 60-65 was selected based upon results from comparison of biofilm dispersion caused by various tGNP incubation times used in combination with laser irradiation (FIG. 10). […] After treatment, samples were analyzed using confocal microscopy, CFU assays, or scanning electron microscopy (SEM).
Biofilms on glass discs were pre-treated with tGNPs at 70 μg/mL in PBS for 2 h (SA5120) or 1 h (PA 60-65). […] Samples were incubated for 24 h at 37° C. and then analyzed using CFU assays or SEM. […]

[3] = test system: planktonic P. aeruginosa PA 60-65 cultures; test: CFU assay of planktonic P. aeruginosa PA 60-65 cultures; type: cell-based, Pseudomonas aeruginosa; settings: amikacin 24 h (16-64 μg/mL)
Protocol: For planktonic bacteria, broth cultures of SA5120 in TSB and PA 60-65 in BHI were grown for 16-18 h at 37° C. on a shaker at 250 rpm. The cultures were diluted to an OD600 of 0.1 using TSB for SA5120 or BHI for PA 60-65 and incubated at 37° C. for ˜1.5 h to reach an OD600 of 0.3. Samples were treated with antibiotics in triplicate in 5-mL tubes at 37° C. on a shaker at 250 rpm for 24 h, after which 1 mL of culture from each tube was transferred into a fresh tube and centrifuged to pellet the cells. The cell pellets were washed twice in PBS, re-suspended in 1 mL of PBS, serially diluted in PBS, and plated in triplicate on TSA plates. The plates were incubated overnight at 37° C., and the resulting colonies were enumerated and used to calculate CFUs/mL.

[4] = test system: Staphylococcus epidermidis biofilm; settings: ns-pulsed laser non-thermal shockwaves combined with 24-h gentamicin treatment; cited from earlier work
[5] = GNP-targeted laser therapy followed by 24-h antibiotic treatment at 100 μg/mL

For CN[C@H](CC(C)C)C(=O)N[C@H]1C(=O)N[C@@H](CC(N)=O)C(=O)N[C@H]2C(=O)N[C@H]3C(=O)N[C@H](C(=O)N[C@H](C(=O)O)c4cc(O)cc(O)c4-c4cc3ccc4O)[C@H](O)c3ccc(c(Cl)c3)Oc3cc2cc(c3O[C@@H]2O[C@H](CO)[C@@H](O)[C@H](O)[C@H]2O[C@H]2C[C@](C)(N)[C@H](O)[C@H](C)O2)Oc2ccc(cc2Cl)[C@H]1O [vancomycin, Vancomycin], the “effect of GNP-targeted laser therapy on antibacterial activity of vancomycin against MRSA biofilms” value (MRSA SA5120 biofilms; 24-h vancomycin at 100 or 1000 μg/mL) was “enhanced the antibacterial activity”, the “reduction in MRSA biofilm viability (CFU)” value (MRSA SA5120 biofilms; [5]) was 2 log and the “reduction in viability of planktonic MRSA cultures (CFU)” value [1] was 4 log and ~3 log.

For NCC[C@H](O)C(=O)N[C@@H]1C[C@H](N)[C@@H](O[C@H]2O[C@H](CN)[C@@H](O)[C@H](O)[C@H]2O)[C@H](O)[C@H]1O[C@H]1O[C@H](CO)[C@@H](O)[C@H](N)[C@H]1O [amikacin], the “reduction in P. aeruginosa biofilm viability (CFU)” value ([2]; GNP-targeted laser therapy in combination with 8 μg/mL amikacin) was 5 log, the “effect of increasing amikacin from 8 to 16 μg/mL in the combination therapy” value ([2]; P. aeruginosa biofilms, with GNP-targeted laser therapy) was “did not further reduce cell viability” and the “reduction in P. aeruginosa biofilm viability (CFU)” value ([2]; amikacin alone, 8 μg/mL) was ~1 log. The “reduction in viability of planktonic P. aeruginosa cultures (CFU)” value [3] was ~4 log.

With gentamicin the “reduction in MRSA biofilm viability (CFU)” value (MRSA SA5120 biofilms; [5]) was 4 log, the “reduction in viable bacteria in MRSA biofilms” value (MRSA SA5120 biofilms; GNP-targeted laser therapy followed by 24-h gentamicin at 100 μg/mL) was 99.99% and the “reduction in MRSA biofilm viability (CFU)” value (MRSA SA5120 biofilms; antibiotic alone, 100 μg/mL, 24 h) was 1 log. The “reduction in viability of planktonic MRSA cultures (CFU)” value [1] was ~4 log and the “reduction in Staphylococcus epidermidis biofilm viability” value [4] was 1 log.

B1: papain: enzyme used to loosen S. aureus biofilms prior to CFU assay (protein, UniProt P00784 134-345, looked up)
Papain: IPEYVDWRQKGAVTPVKNQGSCGSCWAFSAVVTIEGIIKIRTGNLNEYSEQELLDCDRRSYGCNGGYPWSALQLVAQYGIHYRNTYPYEGVQRYCRSREKGPYAAKTDGVRQVQPYNEGALLYSIANQPVSVVLEAAGKDFQLYRGGIFVGPCGNKVDHAVAAVGYGPNYILIKNSWGTGWGENGYIRIKRGTGNSYGVCGLYTSSFYPVKN
For B1, the “viability of planktonic MRSA cultures” value ([1]; 100 μg/mL papain, 2 or 4 h at 37° C.) was “no reduction in cell viability”.
